Laboratory results: patent publication US20040152903A1, “6-chloro-3-pyridylmethylpropylamine derivatives, preparation process thereof and bactericides” (priority 2004, published 2004)

Experiments:
Botrytis cinerea = experiment: Antifungal activity test (PDA plate, hypha extension inhibition); type: cell-based; conditions: 1.6 ppm in PDA culture medium
Procedure: (§1) (Antifungal Activity Test against Various Pathogenic Fungi) For each of the compounds I-1 to 27 of the present invention and the comparative compounds (a) to (d), (m-1) and (m-3), 20 mg was weighed and dissolved in 2 ml of dimethylsulfoxide, and a double dilution row in 10 steps was prepared by further using dimethylsulfoxide. A 0.6 ml portion of these solutions was each added to 60 ml of a PDA culture medium (potato-dextrose-agar culture medium) at about 60° C., they were well mixed in a 100 ml Erlenmeyer flask, the solution was poured into a schale and was solidified, the plate culture media containing the compounds according to the present invention with final concentrations of 100, 50.0, 25.0, 12.5, 6.3, 3.2, 1.6, 0.8, 0.4 and 0.2 mg/l were prepared. On the other hand, the specimen bacteria cultured on the plate culture media beforehand was punched by a 4 mm diameter cork borer, and was inoculated on the plate culture media containing the aforementioned chemicals. After the inoculation, the bacteria were cultured at the optimum growth temperature of each bacterium for 1 to 7 days (for this optimum growth temperature, LIST OF CULTURES 1996 Microorganisms 10th edition published by Fermentation Research Institute (Foundation) can be referred to.), and the growth of the bacteria was measured by the diameter of a colony. […] R=100(dc−dt)/dc (Equation 3) [wherein each symbol is shown as follows: R=Hypha extension inhibition rate (%), dc=Diameter of colony on no-treated plate, dt=Diameter of colony on chemical-treated plate.] The results obtained above was evaluated in 5 steps in accordance with the following examination scale. <Growth Inhibition> 5: Hypha extension inhibition rate of 90% or more 4: Hypha extension inhibition rate of from 70% to less than 90% 3: […] 2: […] In addition, the abbreviations in Table 10 are as follows: B.c: Botrytis cinerea

Pyrenophora graminea = experiment: as above; type: cell-based; conditions: 12.5 ppm in PDA culture medium
Procedure: (Antifungal Activity Test against Various Pathogenic Fungi) For each of the compounds I-1 to 27 of the present invention and the comparative compounds (a) to (d), (m-1) and (m-3), 20 mg was weighed and dissolved in 2 ml of dimethylsulfoxide, and a double dilution row in 10 steps was prepared by further using dimethylsulfoxide. A 0.6 ml portion of these solutions was each added to 60 ml of a PDA culture medium (potato-dextrose-agar culture medium) at about 60° C., they were well mixed in a 100 ml Erlenmeyer flask, the solution was poured into a schale and was solidified, the plate culture media containing the compounds according to the present invention with final concentrations of 100, 50.0, 25.0, 12.5, 6.3, 3.2, 1.6, 0.8, 0.4 and 0.2 mg/l were prepared. On the other hand, the specimen bacteria cultured on the plate culture media beforehand was punched by a 4 mm diameter cork borer, and was inoculated on the plate culture media containing the aforementioned chemicals. After the inoculation, the bacteria were cultured at the optimum growth temperature of each bacterium for 1 to 7 days (for this optimum growth temperature, LIST OF CULTURES 1996 Microorganisms 10th edition published by Fermentation Research Institute (Foundation) can be referred to.), and the growth of the bacteria was measured by the diameter of a colony. […]

Septoria tritici = experiment: as above; type: cell-based; conditions: 100 ppm in PDA culture medium
Procedure: as §1, with “S.t: Septoria tritici” for “B.c: Botrytis cinerea”

wheat powdery mildew = experiment: Test of control effect on wheat powdery mildew; type: in vivo; set-up: Control Value: scale not given here; conditions: wettable powder 125 mg/l, 100 liters/10 a, wheat seedlings (Nourin 64), examined 9th to 14th day after inoculation
Procedure: (Test of Control Effect on Wheat Powdery Mildew) Wettable powders were prepared from compounds of the present invention I-1 to I-27 and comparative compounds (a) to (d), (m-1) and (m-3). The obtained wettable powder was diluted and suspended with water to provide the predetermined concentration (125 mg/l), and was sprinkled onto seedlings of wheat (variety: “Nourin 64”) at the first to the second leaf period which were cultivated using square plastic pots (size: 6.4 cm×6.4 cm) in a rate of 100 liters/10 a (ares). After drying the sprinkled leaves with air, a suspension of wheat powdery mildew spores taken from infected leaves was inoculated by spraying onto the sprinkled leaves. They were supervised in a green house (temperature: 20 to 24° C., relative humidity: 20 to 70 RH). On the 9th to 14th day after the inoculation, the infection degree was examined according to the following scale and the control value of each compound was calculated by the following calculation equation 1. [table]

| Structure (SMILES) | Growth Inhibition B.c (1.6) (Botrytis cinerea) | Growth Inhibition P.g (12.5) (Pyrenophora graminea) | Growth Inhibition S.t (100) (Septoria tritici) | Control Value (wheat powdery mildew) |
| --- | --- | --- | --- | --- |
| CC(Cc1ccc(C(F)(F)F)c(F)c1F)CN(C)Cc1ccc(Cl)nc1 (centres unmarked) [Compound I-10] | 5 (Hypha extension inhibition rate of 90% or more) | 4 (Hypha extension inhibition rate of from 70% to less than 90%) | 4 (Hypha extension inhibition rate of from 70% to less than 90%) | 100 |
| CC(Cc1ccc2c(c1)OC(F)(F)O2)CN(C)Cc1ccc(Cl)nc1 (centres unmarked) [Compound I-24] | 4 (Hypha extension inhibition rate of from 70% to less than 90%) | 5 (Hypha extension inhibition rate of 90% or more) | 4 (Hypha extension inhibition rate of from 70% to less than 90%) | 100 |
